# Legend:
# [1] = test system: Mus musculus; experiment: Toxicity in Swiss Webster mouse assessed as creatinine level at 3 mg/kg, ip daily for 7 days measured after 7 days; assay type: organism-based; set-up: dose 3 mg/kg, route intraperitoneal; conditions: in vivo, 168 h
# [2] = molecular target: Tyrosine-protein kinase Fyn (Homo sapiens) (UniProt P06241); experiment: Inhibition of FYN at 5 uM
# [3] = molecular target: MAP kinase-activated protein kinase 5 (Homo sapiens) (UniProt Q8IW41); experiment: Inhibition of PRAK at 5 uM
# MAP kinase-activated protein kinase 5 (Homo sapiens), sequence (Q8IW41 whole entry): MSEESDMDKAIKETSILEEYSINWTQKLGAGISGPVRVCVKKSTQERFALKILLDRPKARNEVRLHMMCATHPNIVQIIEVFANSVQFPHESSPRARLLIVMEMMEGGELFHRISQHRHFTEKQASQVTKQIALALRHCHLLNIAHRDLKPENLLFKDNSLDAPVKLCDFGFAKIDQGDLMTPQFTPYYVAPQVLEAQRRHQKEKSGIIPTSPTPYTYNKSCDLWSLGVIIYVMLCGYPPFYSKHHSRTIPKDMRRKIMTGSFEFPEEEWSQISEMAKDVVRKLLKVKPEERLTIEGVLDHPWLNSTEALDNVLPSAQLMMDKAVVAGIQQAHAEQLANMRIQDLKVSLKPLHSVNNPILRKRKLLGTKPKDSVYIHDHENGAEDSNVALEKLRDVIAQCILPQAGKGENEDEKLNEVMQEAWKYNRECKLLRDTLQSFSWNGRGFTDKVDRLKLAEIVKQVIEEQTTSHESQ
# [4] = molecular target: Serine/threonine-protein kinase Chk2 (Homo sapiens) (UniProt O96017); experiment: Inhibition of CHK2 at 5 uM
# Serine/threonine-protein kinase Chk2 (Homo sapiens), sequence (O96017 whole entry): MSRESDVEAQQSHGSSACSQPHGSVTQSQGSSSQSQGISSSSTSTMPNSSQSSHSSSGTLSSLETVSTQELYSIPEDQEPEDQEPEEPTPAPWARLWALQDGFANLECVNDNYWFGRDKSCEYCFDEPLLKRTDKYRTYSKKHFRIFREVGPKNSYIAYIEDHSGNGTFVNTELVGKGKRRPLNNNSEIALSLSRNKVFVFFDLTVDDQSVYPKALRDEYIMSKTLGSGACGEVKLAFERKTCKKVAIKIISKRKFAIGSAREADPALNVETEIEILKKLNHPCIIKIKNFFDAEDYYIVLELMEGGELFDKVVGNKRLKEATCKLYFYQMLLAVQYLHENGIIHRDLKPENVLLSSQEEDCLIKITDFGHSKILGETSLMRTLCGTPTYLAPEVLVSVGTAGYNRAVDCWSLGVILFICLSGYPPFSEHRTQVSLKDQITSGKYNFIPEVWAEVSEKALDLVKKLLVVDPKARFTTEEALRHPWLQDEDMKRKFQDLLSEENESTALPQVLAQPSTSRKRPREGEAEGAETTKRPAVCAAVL
# [5] = test system: Mus musculus; experiment: Toxicity in Swiss Webster mouse assessed as hemoglobin level at 3 mg/kg, ip daily for 7 days measured after 7 days; assay type: organism-based; set-up: dose 3 mg/kg, route intraperitoneal
# [6] = test system: Mus musculus; experiment: Toxicity in Swiss Webster mouse assessed as glucose level at 50 mg/kg, ip daily for 7 days measured after 7 days; assay type: organism-based; set-up: dose 50 mg/kg, route intraperitoneal; conditions: in vivo, 168 h
# [7] = molecular target: Mitogen-activated protein kinase 3 (Homo sapiens) (UniProt P27361); experiment: Inhibition of Erk1 at 5 uM
# Mitogen-activated protein kinase 3 (Homo sapiens), sequence (P27361 whole entry): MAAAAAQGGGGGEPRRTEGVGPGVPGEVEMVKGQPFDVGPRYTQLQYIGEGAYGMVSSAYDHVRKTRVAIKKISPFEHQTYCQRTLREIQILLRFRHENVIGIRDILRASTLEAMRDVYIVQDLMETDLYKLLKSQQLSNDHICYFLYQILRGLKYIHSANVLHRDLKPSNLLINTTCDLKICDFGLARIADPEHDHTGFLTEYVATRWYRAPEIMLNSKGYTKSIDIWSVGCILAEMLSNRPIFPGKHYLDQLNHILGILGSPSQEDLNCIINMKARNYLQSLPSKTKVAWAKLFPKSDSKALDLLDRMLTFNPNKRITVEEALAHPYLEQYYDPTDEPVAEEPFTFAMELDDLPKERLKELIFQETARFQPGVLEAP
# [8] = Inhibition of PKA at 5 uM
# [9] = test system: Mus musculus; experiment: Toxicity in Swiss Webster mouse assessed as alanine aminotransferase level at 50 mg/kg, ip daily for 7 days measured after 7 days; assay type: organism-based; set-up: dose 50 mg/kg, route intraperitoneal; conditions: in vivo, 168 h
# [10] = molecular target: 5'-AMP-activated protein kinase subunit beta-1 (Homo sapiens) (UniProt Q9Y478); experiment: Inhibition of AMPK at 5 uM
# 5'-AMP-activated protein kinase subunit beta-1 (Homo sapiens), sequence (Q9Y478 whole entry): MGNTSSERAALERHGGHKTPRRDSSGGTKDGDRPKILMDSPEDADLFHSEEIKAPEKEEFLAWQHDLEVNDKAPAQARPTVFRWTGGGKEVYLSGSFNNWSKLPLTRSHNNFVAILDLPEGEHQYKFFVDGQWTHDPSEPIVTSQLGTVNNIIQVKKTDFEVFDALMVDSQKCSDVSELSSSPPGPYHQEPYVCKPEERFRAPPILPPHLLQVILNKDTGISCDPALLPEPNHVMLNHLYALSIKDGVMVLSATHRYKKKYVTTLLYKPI
# [11] = test system: Mus musculus; experiment: Toxicity in Swiss Webster mouse assessed as phosphate level at 50 mg/kg, ip daily for 7 days measured after 7 days; assay type: organism-based; set-up: dose 50 mg/kg, route intraperitoneal; conditions: in vivo, 168 h
# [12] = test system: Mus musculus; experiment: Toxicity in Swiss Webster mouse assessed as phosphate level at 3 mg/kg, ip daily for 7 days measured after 7 days; assay type: organism-based; set-up: dose 3 mg/kg, route intraperitoneal; conditions: in vivo, 168 h
# [13] = molecular target: Tyrosine-protein kinase JAK2 (Homo sapiens) (UniProt O60674); experiment: Inhibition of JAK2 at 5 uM
# Tyrosine-protein kinase JAK2 (Homo sapiens), sequence (O60674 whole entry): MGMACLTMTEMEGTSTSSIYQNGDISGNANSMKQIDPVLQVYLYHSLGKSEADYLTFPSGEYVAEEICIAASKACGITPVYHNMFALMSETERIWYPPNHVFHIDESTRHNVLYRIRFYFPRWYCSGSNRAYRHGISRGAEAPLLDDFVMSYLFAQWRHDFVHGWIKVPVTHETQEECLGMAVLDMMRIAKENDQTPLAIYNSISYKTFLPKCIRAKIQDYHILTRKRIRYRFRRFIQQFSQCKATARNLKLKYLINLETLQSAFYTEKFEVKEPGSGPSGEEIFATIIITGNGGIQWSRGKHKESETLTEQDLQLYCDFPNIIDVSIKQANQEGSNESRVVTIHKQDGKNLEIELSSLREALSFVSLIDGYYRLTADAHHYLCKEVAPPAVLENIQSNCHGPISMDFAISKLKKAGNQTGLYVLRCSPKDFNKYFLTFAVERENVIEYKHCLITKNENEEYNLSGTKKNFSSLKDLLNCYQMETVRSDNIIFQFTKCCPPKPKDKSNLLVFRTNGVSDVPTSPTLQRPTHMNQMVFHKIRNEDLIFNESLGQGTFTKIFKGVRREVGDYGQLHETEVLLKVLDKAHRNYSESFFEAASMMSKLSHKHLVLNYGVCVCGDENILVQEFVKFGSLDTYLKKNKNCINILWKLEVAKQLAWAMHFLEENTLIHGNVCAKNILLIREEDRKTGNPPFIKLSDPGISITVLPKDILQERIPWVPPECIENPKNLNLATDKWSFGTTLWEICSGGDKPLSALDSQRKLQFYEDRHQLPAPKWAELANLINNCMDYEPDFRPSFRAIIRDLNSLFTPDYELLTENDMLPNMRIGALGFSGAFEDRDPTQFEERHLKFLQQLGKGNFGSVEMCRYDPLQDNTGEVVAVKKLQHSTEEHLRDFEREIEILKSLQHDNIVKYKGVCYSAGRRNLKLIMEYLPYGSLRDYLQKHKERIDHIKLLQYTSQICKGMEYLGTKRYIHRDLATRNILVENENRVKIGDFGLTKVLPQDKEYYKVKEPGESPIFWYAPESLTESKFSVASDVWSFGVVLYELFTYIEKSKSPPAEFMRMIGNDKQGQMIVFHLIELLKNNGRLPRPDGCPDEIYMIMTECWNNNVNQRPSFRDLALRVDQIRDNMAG
# Tyrosine-protein kinase Fyn (Homo sapiens), sequence (P06241 2-537 limits assumed): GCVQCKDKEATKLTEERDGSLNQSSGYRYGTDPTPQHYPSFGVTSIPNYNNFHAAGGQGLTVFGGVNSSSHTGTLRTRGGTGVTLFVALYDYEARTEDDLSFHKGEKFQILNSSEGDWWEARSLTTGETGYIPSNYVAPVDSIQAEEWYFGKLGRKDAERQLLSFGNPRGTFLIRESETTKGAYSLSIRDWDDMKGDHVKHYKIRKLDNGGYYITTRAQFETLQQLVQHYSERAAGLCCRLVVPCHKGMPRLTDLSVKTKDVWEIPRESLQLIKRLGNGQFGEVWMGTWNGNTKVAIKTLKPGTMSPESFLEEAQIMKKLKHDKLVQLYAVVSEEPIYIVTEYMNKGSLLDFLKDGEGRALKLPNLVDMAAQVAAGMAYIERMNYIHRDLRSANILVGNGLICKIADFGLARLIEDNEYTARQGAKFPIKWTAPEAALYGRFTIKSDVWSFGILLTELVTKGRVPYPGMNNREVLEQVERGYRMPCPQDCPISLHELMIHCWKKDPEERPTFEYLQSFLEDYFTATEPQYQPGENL
smiles,measurement,setting,value
CCCOc1ccc(/C=C2\SC(=O)NC2=O)cc1,Activity,[1],0.2 mg/dL
same,inhibition,[2],0%
same,inhibition,[3],4%
same,inhibition,[4],4%
same,Activity,[5],12.8 g/dL
same,Activity,[6],136 mg/dL
same,inhibition,[7],1%
same,inhibition,[8],3%
same,Activity,[9],37 U/L
same,inhibition,[10],7%
same,Activity,[11],5.5 mg/dL
same,Activity,[12],5.1 mg/dL
same,inhibition,[13],18%

# Source: ChEMBL document CHEMBL1139352, “Synthesis and evaluation of novel inhibitors of Pim-1 and Pim-2 protein kinases” (J Med Chem, 2009)
